Reference: ChEMBL document CHEMBL5252512, “Recent Progress in the Development of HIV-1 Protease Inhibitors for the Treatment of HIV/AIDS” (J Med Chem, 2016)

Assays:
[1] = system: Human immunodeficiency virus 1; assay: Ratio of EC50 for antiviral activity against HIV1-T21217 to EC50 for antiviral activity against wild type HIV1 r13205; format: functional
[2] = system: Human immunodeficiency virus 1; assay: Ratio of EC50 for antiviral activity against HIV1-T13572 to EC50 for antiviral activity against wild type HIV1 r13205; format: functional
[3] = system: Human immunodeficiency virus 1; assay: Antiviral activity against HIV1 T21055 infected in human MT4 cells expressing LTR and EGFP assessed as inhibition of virus-induced cytopathic effect by fluorescence microscopic analysis; format: functional, organism-based; conditions: Human immunodeficiency virus 1, T21055, MT4
[4] = system: Human immunodeficiency virus 1; assay: Ratio of EC50 for antiviral activity against HIV1-T13436 to EC50 for antiviral activity against wild type HIV1 r13205; format: functional
[5] = system: Human immunodeficiency virus 1; assay: Antiviral activity against wild type HIV1 r13205 infected in human MT4 cells expressing LTR and EGFP assessed as inhibition of virus-induced cytopathic effect by fluorescence microscopic analysis; format: functional, organism-based; conditions: Human immunodeficiency virus 1, r13205, MT4
[6] = system: Human immunodeficiency virus 1; assay: Antiviral activity against HIV1 T13632 infected in human MT4 cells expressing LTR and EGFP assessed as inhibition of virus-induced cytopathic effect by fluorescence microscopic analysis; format: functional, organism-based; conditions: Human immunodeficiency virus 1, T13632, MT4
[7] = system: Human immunodeficiency virus 1; assay: Ratio of EC50 for antiviral activity against HIV1-T20760 to EC50 for antiviral activity against wild type HIV1 r13205; format: functional
[8] = system: Human immunodeficiency virus 1; assay: Antiviral activity against HIV1 T13717 infected in human MT4 cells expressing LTR and EGFP assessed as inhibition of virus-induced cytopathic effect by fluorescence microscopic analysis; format: functional, organism-based; conditions: Human immunodeficiency virus 1, T13717, MT4
[9] = system: Human immunodeficiency virus 1; assay: Antiviral activity against HIV1 T21217 infected in human MT4 cells expressing LTR and EGFP assessed as inhibition of virus-induced cytopathic effect by fluorescence microscopic analysis; format: functional, organism-based; conditions: Human immunodeficiency virus 1, T21217, MT4
[10] = system: Human immunodeficiency virus 1; assay: Antiviral activity against HIV1 T20760 infected in human MT4 cells expressing LTR and EGFP assessed as inhibition of virus-induced cytopathic effect by fluorescence microscopic analysis; format: functional, organism-based; conditions: Human immunodeficiency virus 1, T20760, MT4
[11] = system: Human immunodeficiency virus 1; assay: Antiviral activity against HIV1 T13436 infected in human MT4 cells expressing LTR and EGFP assessed as inhibition of virus-induced cytopathic effect by fluorescence microscopic analysis; format: functional, organism-based; conditions: Human immunodeficiency virus 1, T13436, MT4
[12] = system: Human immunodeficiency virus 1; assay: Antiviral activity against HIV1 T13572 infected in human MT4 cells expressing LTR and EGFP assessed as inhibition of virus-induced cytopathic effect by fluorescence microscopic analysis; format: functional, organism-based; conditions: Human immunodeficiency virus 1, T13572, MT4
[13] = system: Human immunodeficiency virus 1; assay: Ratio of EC50 for antiviral activity against HIV1-T21055 to EC50 for antiviral activity against wild type HIV1 r13205; format: functional
[14] = system: Human immunodeficiency virus 1; assay: Ratio of EC50 for antiviral activity against HIV1-T13632 to EC50 for antiviral activity against wild type HIV1 r13205; format: functional
[15] = system: Human immunodeficiency virus 1; assay: Ratio of EC50 for antiviral activity against HIV1-T13717 to EC50 for antiviral activity against wild type HIV1 r13205; format: functional
[16] = molecular target: T1, Human immunodeficiency virus type 1 protease (Human immunodeficiency virus 1, UniProt Q72874); assay: Binding affinity to HIV1 recombinant wild type protease expressed in Escherichia coli BL21(DE3) assessed as inhibition constant
[17] = system: Human immunodeficiency virus 1; assay: Antiviral activity against HIV1 LAI infected in human MT2 cells assessed as inhibition of virus-induced cytopathic effect by MTT assay; format: functional, organism-based; conditions: Human immunodeficiency virus 1, LAI
[18] = system: Human immunodeficiency virus 1; assay: Ratio of EC50 for antiviral activity against HIV1-MM to EC50 for antiviral activity against wild type HIV1 ERS104pre; format: functional
[19] = system: Human immunodeficiency virus 1; assay: Antiviral activity against multidrug-resistant HIV1-B infected in phytohemagglutinin-activated human PBMC cells assessed as inhibition of virus-induced cytopathic effect measured after 7 days by MTT assay; format: functional, organism-based; conditions: Human immunodeficiency virus 1, B, 168 h
[20] = system: Human immunodeficiency virus 1; assay: Ratio of EC50 for antiviral activity against HIV1-JSL to EC50 for antiviral activity against wild type HIV1 ERS104pre; format: functional
[21] = Lipophilicity, logD of the compound in Octanol/buffer by shake-flask method; format: physicochemical
[22] = system: Human immunodeficiency virus 1; assay: Antiviral activity against multidrug-resistant HIV1-JSL infected in phytohemagglutinin-activated human PBMC cells assessed as inhibition of virus-induced cytopathic effect measured after 7 days by MTT assay; format: functional, organism-based; conditions: Human immunodeficiency virus 1, JSL, 168 h
[23] = Lipophilicity, logP of the compound in Octanol/water by shake-flask method; format: physicochemical
[24] = system: Human immunodeficiency virus 1; assay: Ratio of EC50 for antiviral activity against HIV1-C to EC50 for antiviral activity against wild type HIV1 ERS104pre; format: functional
[25] = molecular target: T1, Human immunodeficiency virus type 1 protease; assay: Binding affinity to HIV1 protease assessed as inhibition constant
[26] = system: Human immunodeficiency virus 1; assay: Antiviral activity against multidrug-resistant HIV1-C infected in phytohemagglutinin-activated human PBMC cells assessed as inhibition of virus-induced cytopathic effect measured after 7 days by MTT assay; format: functional, organism-based; conditions: Human immunodeficiency virus 1, C, 168 h
[27] = Cytotoxicity against human MT2 cells assessed as reduction in cell viability by MTT assay; format: toxicity, cell-based
[28] = system: Human immunodeficiency virus 1; assay: Ratio of EC50 for antiviral activity against HIV1-TM to EC50 for antiviral activity against wild type HIV1 ERS104pre; format: functional
[29] = system: Human immunodeficiency virus 1; assay: Antiviral activity against multidrug-resistant HIV1-G infected in phytohemagglutinin-activated human PBMC cells assessed as inhibition of virus-induced cytopathic effect measured after 7 days by MTT assay; format: functional, organism-based; conditions: Human immunodeficiency virus 1, G, 168 h
[30] = system: Human immunodeficiency virus 1; assay: Antiviral activity against wild type HIV1 ERS104pre infected in human PBMC cells assessed as inhibition of virus-induced cytopathic effect measured after 7 days by MTT assay; format: functional, organism-based; conditions: Human immunodeficiency virus 1, ERS104pre, 168 h
[31] = Apparent permeability in rat astrocytes/rat pericytes/monkey endothelial cells triple cell co-culture system incubated for 30 mins by spectrophotometric analysis; format: ADME, cell-based
[32] = system: Human immunodeficiency virus 1; assay: Antiviral activity against multidrug-resistant HIV1-TM infected in phytohemagglutinin-activated human PBMC cells assessed as inhibition of virus-induced cytopathic effect measured after 7 days by MTT assay; format: functional, organism-based; conditions: Human immunodeficiency virus 1, TM, 168 h
[33] = system: Human immunodeficiency virus 1; assay: Ratio of EC50 for antiviral activity against HIV1-G to EC50 for antiviral activity against wild type HIV1 ERS104pre; format: functional
[34] = Selectivity index, ratio of CC50 for human MT2 cells to IC50 for antiviral activity against HIV1 LAI; format: toxicity; conditions: read-out: Ratio CC50/EC50
[35] = system: Human immunodeficiency virus 1; assay: Antiviral activity against multidrug-resistant HIV1-MM infected in phytohemagglutinin-activated human PBMC cells assessed as inhibition of virus-induced cytopathic effect measured after 7 days by MTT assay; format: functional, organism-based; conditions: Human immunodeficiency virus 1, MM, 168 h
[36] = system: Human immunodeficiency virus 1; assay: Ratio of EC50 for antiviral activity against HIV1-B to EC50 for antiviral activity against wild type HIV1 ERS104pre; format: functional
[37] = molecular target: T1, Human immunodeficiency virus type 1 protease; assay: Inhibition of recombinant wildtype HIV1 Protease using Abz-Thr-Ile-Nle-Phe(NO2)-Gln-Arg peptide as substrate
[38] = system: Human immunodeficiency virus 1; assay: Antiviral activity against darunavir-resistant HIV1 10P infected in phytohemagglutinin-activated human PBMC cells assessed as inhibition of virus-induced cytopathic effect measured after 7 days by MTT assay; format: functional, organism-based; conditions: Human immunodeficiency virus 1, 10P, 168 h
[39] = system: Human immunodeficiency virus 1; assay: Antiviral activity against darunavir-resistant HIV1 20P infected in phytohemagglutinin-activated human PBMC cells assessed as inhibition of virus-induced cytopathic effect measured after 7 days by MTT assay; format: functional, organism-based; conditions: Human immunodeficiency virus 1, 20P, 168 h
[40] = system: Human immunodeficiency virus 1; assay: Ratio of EC50 for antiviral activity against darunavir-resistant HIV1 10P to EC50 for antiviral activity against wild type HIV1 ERS104pre; format: functional
[41] = system: Human immunodeficiency virus 1; assay: Ratio of EC50 for antiviral activity against darunavir-resistant HIV1 20P to EC50 for antiviral activity against wild type HIV1 ERS104pre; format: functional

| Structure (SMILES) | EC50 [17] | Ratio EC50 [18] | EC50 [19] | Ratio EC50 [20] | EC50 [22] | Ratio EC50 [24] | EC50 [26] | Ratio EC50 [28] | EC50 [29] | EC50 [30] | EC50 [32] | Ratio EC50 [33] | EC50 [35] | Ratio EC50 [36] | IC50 [37] | further results |
| --- | --- | --- | --- | --- | --- | --- | --- | --- | --- | --- | --- | --- | --- | --- | --- | --- |
| CC(C)CN(C[C@@H](O)[C@H](Cc1ccccc1)NC(=O)O[C@H]1CO[C@H]2OCC[C@H]21)S(=O)(=O)c1ccc2sc(NC3CCN(C4CCCC4)CC3)nc2c1 |  |  |  |  |  |  |  |  |  |  |  |  |  |  |  | Ratio EC50 [1]: 12; Ratio EC50 [2]: 0.058; EC50 [3]: 308 nM; Ratio EC50 [4]: 0.2; EC50 [5]: 26 nM; EC50 [6]: 42 nM; Ratio EC50 [7]: 2.5; EC50 [8]: 68 nM; EC50 [9]: 312 nM; EC50 [10]: 65 nM; EC50 [11]: 5.1 nM; EC50 [12]: 1.5 nM; Ratio EC50 [13]: 12; Ratio EC50 [14]: 1.6; Ratio EC50 [15]: 2.6 |
| CC(C)CN(C[C@@H](O)[C@H](Cc1ccccc1)NC(=O)O[C@H]1CO[C@H]2OCC[C@H]21)S(=O)(=O)c1ccc(C(=O)O)cc1 | > 10000 nM |  |  |  |  |  |  |  |  |  |  |  |  |  |  | Ki [16]: 0.0127 nM |
| COc1ccc(S(=O)(=O)N(CC(C)C)C[C@@H](O)[C@H](Cc2ccccc2)NC(=O)O[C@H]2CO[C@H]3OCC(F)(F)[C@H]32)cc1 | 0.8 nM | 1 | 14 nM | 10 | 21 nM | 1 | 2 nM | 2 | 4 nM | 2.3 nM | 4 nM | 2 | 2 nM | 7 |  | logD [21]: -0.29; logP [23]: -0.14; Ki [25]: 0.8 nM; CC50 [27]: 17500 nM; Papp at 0.5 h [31]: 61.8 ×10⁻⁶ cm/s; selectivity ratio [34]: 21900 |
| CC(C)(C)NC(=O)[C@@H]1C[C@@H]2CCCC[C@@H]2CN1C[C@@H](O)[C@@H](NC(=O)[C@H](CC(N)=O)NC(=O)c1ccc2ccccc2n1)c1cccs1 |  |  |  |  |  |  |  |  |  |  |  |  |  |  | 5000 nM |  |
| Cc1c(O)cccc1C(=O)N[C@@H](c1cccs1)[C@H](O)CN1C[C@H]2CCCC[C@H]2C[C@H]1C(=O)NC(C)(C)C |  |  |  |  |  |  |  |  |  |  |  |  |  |  | 30000 nM |  |
| COC(=O)N[C@H](C(=O)N[C@@H](Cc1ccccc1)[C@@H](O)CN(Cc1ccc(-c2ccccn2)cc1)NC(=O)[C@@H](NC(=O)OC)C(C)(C)C)C(C)(C)C [ATAZANAVIR] |  | 20 | 450 nM | >78 | > 211 nM | 14 | 38.8 nM | 24 | 19.4 nM | 2.1 nM | 56 nM | 7 | 81 nM | 174 |  | EC50 [38]: 323 nM; EC50 [39]: > 1000 nM; Ratio EC50 [40]: 77; Ratio EC50 [41]: >370 |
